IC50, CC50 and Activity data for 10 compounds are collected here from ChEMBL document CHEMBL1141243, “Antioxidant and cytotoxic activities of xanthones from Cudrania tricuspidata” (Bioorg Med Chem Lett, 2005).

Assay [1] has as its system Radical scavenging activity. As to the kind of experiment: Superoxide radical scavenging activity of Cudriana tricuspidata extracts. The format is functional, Maclura tricuspidata.
Assay [2] has as its system AGS. As to the kind of experiment: Cytotoxicity against human cancer AGS cell line by MTT assay. The format is functional. The note with it: read-out: LD50 (the source's name). On the technique in general: Tetrazolium assays rely on reduction of a dye to a coloured formazan, in cell work by metabolically active cells.
Assay [3] has as its system Radical scavenging activity. As to the kind of experiment: DPPH radical scavenging activity of Cudriana tricuspidata extracts. The class given is functional, Maclura tricuspidata. (In general: Loss of DPPH colour is used to gauge radical scavenging.)
Assay [4] relates to SK-OV-3. In words: Cytotoxicity against human cancer SKOV3 cell line by MTT assay. The note with it: read-out: LD50 (the source's name). The format is functional.
Assay [5] has as its system A549. In words: Cytotoxicity against human cancer A549 cell line by MTT assay. The note with it: read-out: LD50 (the source's name). The format is functional.
In assay [6] the test system is Radical scavenging activity. As to the kind of experiment: Hydroxyl radical scavenging activity of Cudriana tricuspidata extracts. The format is functional.
Assay [7] deals with HT-29. In words: Cytotoxicity against human cancer HT29 cell line by MTT assay. The format is functional. As to conditions: read-out: LD50 (the source's name).
For assay [8], the system named is HL-60. In words: Cytotoxicity against human cancer HL60 cell line by MTT assay. The class given is functional. The note with it: read-out: LD50 (the source's name).
Assay [9] relates to HL-60. In words: Cytotoxic activity in HL60 by DNA fragmentation assay. The class given is functional, cell-based. The note with it: Homo sapiens.

Broadly, the IC50 is the concentration at which inhibition is half-maximal. Lower therefore signals inhibition by little substance.

Each structure is given as a SMILES string. Calls of active or inactive are those of the source. The rule behind the calls is not given here.

In the case of `C=CC(C)(C)c1c(O)cc(O)c2c(=O)c3c(CC=C(C)C)c(OC)c(O)cc3oc12` [CUDRAXANTHONE C], the half-inhibitory concentration (IC50) in assay [1] is 85.1 µM; in assay [3] it was > 200 µM; in assay [6], 24.3 µM. For the same compound, the CC50 turned out to be 49.5 µM in [2]; 73.5 µM in assay [4]; 61.7 µM in assay [5]; 50.7 µM in assay [7]; 40.8 µM in assay [8]. In addition, in assay [9], the outcome was Active.
For the compound `CC(C)=CCc1c(O)c(O)cc2c(=O)c3c(O)c4c(cc3oc12)OC(C)C4(C)C` (stereo not given) [CUDRAXANTHONE M], the IC50 in [1] is 26 µM; in assay [3], 10.4 µM; in [6] it was 42.6 µM. Further, the CC50 amounted to 4.1 µM in assay [2]; 14.6 µM in [4]; 11.8 µM in [5]; 12.1 µM in [7]; 8.2 µM in assay [8]. Also, the outcome in [9] was Active.
As to `C=CC(C)(C)c1c(O)cc(O)c2c(=O)c3cc(O)c4c(c3oc12)C=CC(C)(C)O4`, the IC50 in assay [1] is 64.5 µM; in assay [3], > 200 µM; in assay [6] it was 55.5 µM. Besides, the CC50 worked out at 44.7 µM in [2]; 70.4 µM in [4]; 61.9 µM in assay [5]; 46.3 µM in assay [7]; 35.9 µM in assay [8]. In assay [9], the result was Active.
For `Cc1c(C)c2c(c(C)c1O)CCC(C)(C(=O)O)O2` (stereo not given) [TROLOX], the values for the concentration for half-maximal inhibition (IC50) in assay [1], in assay [3] and in assay [6] were 33.6 µM, 10.6 µM and 48.2 µM, respectively.
Consider `C=CC(C)(C)c1c(OC)cc(O)c2c(=O)c3c(CC=C(C)C)c(O)c(O)cc3oc12` [CUDRAXANTHONE D], for which the IC50 stood at 92.8 µM in assay [1], 17.4 µM in assay [3] and 25.2 µM in assay [6]. For the same compound, the CC50 is 4.7 µM in [2]; 23.8 µM in assay [4]; 16.3 µM in [5]; 20.7 µM in assay [7]; 6.2 µM in assay [8]. The result in assay [9] was Active.
Regarding `C=CC(C)(C)c1c(O)cc2oc3c(CC=C(C)C)c(O)c(O)cc3c(=O)c2c1O` [CUDRAXANTHONE L], the IC50 was 23.6 µM in assay [1], 13.7 µM in [3] and 50.3 µM in [6]. The CC50 is 3.9 µM in [2]; 38 µM in assay [4]; 33.5 µM in [5]; 11.4 µM in assay [7]; 8.6 µM in assay [8]. For the same compound, the outcome in assay [9] was Active.
With `C=CC(C)(C)c1c(OC)cc(O)c2c(=O)c3ccc(O)c(O)c3oc12` [ISOCUDRANIAXANTHONE B], the 50% inhibitory concentration (IC50) in assay [1] was 29.5 µM; in assay [3], 31.8 µM; in assay [6] it was 101 µM. Besides, the CC50 worked out at 43.9 µM in [2]; 71.3 µM in assay [4]; 57.8 µM in [5]; 65 µM in [7]; 45.2 µM in assay [8]. Besides, in assay [9], the outcome was Active.
`COc1cccc2c1C(=O)c1c(O)c3c(c(O)c1C2=O)C[C@@](O)(C(=O)CO)C[C@@H]3O[C@H]1C[C@H](N)[C@H](O)[C@H](C)O1` [DOXORUBICIN]: the CC50 was found to be 1.2 µM in assay [2]; 14.2 µM in assay [4]; 1.3 µM in assay [5]; 1.8 µM in assay [7]; 1.1 µM in assay [8].
Regarding `C=CC(C)(C)c1c(O)c(CC=C(C)C)c2oc3cc(O)c(O)cc3c(=O)c2c1O` [MACLURAXANTHONE B], the half-maximal inhibitory concentration (IC50) in assay [1] is 47.8 µM; in assay [3] it was 15.4 µM; in [6], 74.1 µM. Further, the CC50 is 15.2 µM in [2]; 23.1 µM in assay [4]; 25.8 µM in assay [5]; 28 µM in [7]; 29.5 µM in [8]. Besides, in assay [9], the result was Active.
Take `C=CC(C)(C)c1c(O)cc(O)c2c(=O)c3c(CC=C(C)C)c(O)c(O)cc3oc12` [CUDRATRICUSXANTHONE A]: the results for the 50% inhibitory concentration (IC50) in assay [1], in [3] and in assay [6] were 51 µM, 21.3 µM and 21.2 µM, respectively. Moreover, the CC50 in assay [2] amounted to 32.8 µM; in assay [4], 43.2 µM; in assay [5], 45.8 µM; in [7] it was 41.4 µM; in assay [8] it was 32.8 µM. For the same compound, the result in [9] was Active.
